Starred links: 1 amine or outer side, 2 acyl side, 3 side chain; linkers in the order of their positions; H or OH if unused. Positions of bridges follow the written chain, without caps; N, C: chain ends. Non-standard residues stand in square brackets, D forms with d. Residues, ends and D or L forms follow the SMILES beside them. ξ: configuration not given here. *: point of attachment. X28 = CCCCCCCC(=O)Nc1cc(NC(=O)CCCCCCC)cc(C(=O)*)c1; ξAbu(βξ-NH2) = CC(N[*:3])C(N[*:1])C(=O)[*:2]; Phac(3-amino) = O=C(Cc1cccc(N[*:1])c1)[*:2]; Pentadecanoyl = CCCCCCCCCCCCCCC(=O)*; ξAsp(βξ-Me) = CC(C(=O)O)C(N)C(=O)O; Tridecanoyl = CCCCCCCCCCCCC(=O)*; X1 = O=C(Cc1ccc(N[*:1])cc1)[*:2]; X5 = CCCCCCCCCCCCn1cc(C(=O)*)nn1; Myristoyl = CCCCCCCCCCCCCC(=O)*; NHtetradecyl = CCCCCCCCCCCCCCN*; ξAbu(3ξ-NH2) = CC(N)C(N)C(=O)O; Undecanoyl = CCCCCCCCCCC(=O)*; 3Abz = Nc1cccc(C(=O)O)c1; Pip = O=C(O)[CH]1CCCCN1; ξD = NC(CC(=O)O)C(=O)O; ξPip = O=C(O)C1CCCCN1; CO = O=C([*:1])[*:2]; ξV = CC(C)C(N)C(=O)O; ξP = O=C(O)C1CCCN1; OtBu = CC(C)(C)O*

In this assay the test system is Staphylococcus aureus (MSSA). Particulars: 24 h. In outline:
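Broth microdilution MIC per NCCLS M7-A6 with doubling serial dilutions, in cation-adjusted Mueller-Hinton broth supplemented with 0.625 mM calcium.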
The MIC is the smallest concentration in the dilution series that meets the test's criterion for growth inhibition. For `CCCCCCCCCCCCC(=O)Nc1cccc(C(=O)NC(CC(=O)O)C(=O)NC2C(=O)N3CCCCC3C(=O)NC(C(C)C(=O)O)C(=O)NC(CC(=O)O)C(=O)NCC(=O)NC(CC(=O)O)C(=O)NCC(=O)NC(C(C)N)C(=O)NC(C(C)C)C(=O)N3CCCC3C(=O)NC2C)c1` (stereo not drawn) [Compound 297, C13-(M-Aminobenzoyl)-Amphomycin] ({Tridecanoyl-3Abz}-D[ξAbu(βξ-NH2)][Pip][ξAsp(βξ-Me)]DGDG[ξAbu(3ξ-NH2)]VP; lactam 2-C; configuration not given here), the MIC turned out to be 0.25 µg/mL.

For `CCCCCCCCCCCCC(=O)Nc1ccc(CC(=O)NC(CC(=O)O)C(=O)NC2C(=O)N3CCCCC3C(=O)NC(C(C)C(=O)O)C(=O)NC(CC(=O)O)C(=O)NCC(=O)NC(CC(=O)O)C(=O)NCC(=O)NC(C(C)N)C(=O)NC(C(C)C)C(=O)N3CCCC3C(=O)NC2C)cc1` (stereo not drawn) [Compound 300, C13-(p-Apa)-Amphomycin] (Tridecanoyl-[X1]D[ξAbu(βξ-NH2)][Pip][ξAsp(βξ-Me)]DGDG[ξAbu(3ξ-NH2)]VP; lactam 3-C; configuration not given here), the MIC was 0.225 µg/mL.

On to `CCCCCCCCCCCCCC(=O)Nc1ccc(CC(=O)NC(CC(=O)O)C(=O)NC2C(=O)N3CCCCC3C(=O)NC(C(C)C(=O)O)C(=O)NC(CC(=O)O)C(=O)NCC(=O)NC(CC(=O)O)C(=O)NCC(=O)NC(C(C)N)C(=O)NC(C(C)C)C(=O)N3CCCC3C(=O)NC2C)cc1` (stereo not drawn) [Compound 301, C14-(p-Apa)-Amphomycin] (Myristoyl-[X1]D[ξAbu(βξ-NH2)][Pip][ξAsp(βξ-Me)]DGDG[ξAbu(3ξ-NH2)]VP; lactam 3-C; configuration not given here), for which the MIC is 2 µg/mL.

In the case of `CCCCCCCCCCCCCC(=O)Nc1cccc(CC(=O)NC(CC(=O)O)C(=O)NC2C(=O)N3CCCCC3C(=O)NC(C(C)C(=O)O)C(=O)NC(CC(=O)O)C(=O)NCC(=O)NC(CC(=O)O)C(=O)NCC(=O)NC(C(C)N)C(=O)NC(C(C)C)C(=O)N3CCCC3C(=O)NC2C)c1` (stereo not drawn) [Compound 303, C14-(M-Apa)-Amphomycin] (Myristoyl-[Phac(3-amino)]D[ξAbu(βξ-NH2)][Pip][ξAsp(βξ-Me)]DGDG[ξAbu(3ξ-NH2)]VP; lactam 3-C; configuration not given here), the MIC was 0.5 µg/mL.

Turning to `CCCCCCCCCCCNC(=O)NCCCC(=O)NC(CC(=O)O)C(=O)NC1C(=O)N2CCCCC2C(=O)NC(C(C)C(=O)O)C(=O)NC(CC(=O)O)C(=O)NCC(=O)NC(CC(=O)O)C(=O)NCC(=O)NC(C(C)N)C(=O)NC(C(C)C)C(=O)N2CCCC2C(=O)NC1C` (stereo not shown) [Compound 304, CH3—(CH2)10—NH—C(═O)-GABA-Amphomycin], the minimum inhibitory concentration (MIC) amounted to 4 µg/mL.

As for `CCCCCCCC(=O)Nc1cc(NC(=O)CCCCCCC)cc(C(=O)NC(CC(=O)O)C(=O)NC2C(=O)N3CCCCC3C(=O)NC(C(C)C(=O)O)C(=O)NC(CC(=O)O)C(=O)NCC(=O)NC(CC(=O)O)C(=O)NCC(=O)NC(C(C)N)C(=O)NC(C(C)C)C(=O)N3CCCC3C(=O)NC2C)c1` (stereo not drawn) [Compound 305, N,N′-di-C8-(M,M-Diaminobenzoyl)-Amphomycin] (X28-D[ξAbu(βξ-NH2)][Pip][ξAsp(βξ-Me)]DGDG[ξAbu(3ξ-NH2)]VP; lactam 2-C; configuration not given here), the MIC was determined as 1 µg/mL.

For the compound `CCCCCCCCCCCCCCNC(=O)NCC(=O)NC(CC(=O)O)C(=O)NC1C(=O)N2CCCCC2C(=O)NC(C(C)C(=O)O)C(=O)NC(CC(=O)O)C(=O)NCC(=O)NC(CC(=O)O)C(=O)NCC(=O)NC(C(C)N)C(=O)NC(C(C)C)C(=O)N2CCCC2C(=O)NC1C` (stereo not drawn) [Compound 307, CH3—(CH2)13—NH—C(═O)-Gly-Amphomycin] ({NHtetradecyl-CO}-GD[ξAbu(βξ-NH2)][Pip][ξAsp(βξ-Me)]DGDG[ξAbu(3ξ-NH2)]VP; lactam 3-C; configuration not given here), the minimum inhibitory concentration (MIC) stood at 0.5 µg/mL.

Regarding `CCCCCCCCCCCCn1cc(C(=O)NC(CC(=O)O)C(=O)NC2C(=O)N3CCCCC3C(=O)NC(C(C)C(=O)O)C(=O)NC(CC(=O)O)C(=O)NCC(=O)NC(CC(=O)O)C(=O)NCC(=O)NC(C(C)N)C(=O)NC(C(C)C)C(=O)N3CCCC3C(=O)NC2C)nn1` (stereo not drawn) [Compound 309, 1-Dodecyl-1H-(1,2,3)-Triazole-4-Carboxyl-Amphomycin] (X5-D[ξAbu(βξ-NH2)][Pip][ξAsp(βξ-Me)]DGDG[ξAbu(3ξ-NH2)]VP; lactam 2-C; configuration not given here), the MIC was determined as 1 µg/mL.

For `CCCCCCCCCCCCCCC(=O)Nc1cccc(CC(=O)NC(CC(=O)O)C(=O)NC2C(=O)N3CCCCC3C(=O)NC(C(C)C(=O)O)C(=O)NC(CC(=O)O)C(=O)NCC(=O)NC(CC(=O)O)C(=O)NCC(=O)NC(C(C)N)C(=O)NC(C(C)C)C(=O)N3CCCC3C(=O)NC2C)c1` (stereo not drawn) [Compound 310, C15-(M-Apa)-Amphomycin] (Pentadecanoyl-[Phac(3-amino)]D[ξAbu(βξ-NH2)][Pip][ξAsp(βξ-Me)]DGDG[ξAbu(3ξ-NH2)]VP; lactam 3-C; configuration not given here), the minimal inhibitory concentration (MIC) came to 1 µg/mL.

As for `CCCCCCCCCCCCC(=O)N[C@@H](CC(=O)OC)C(=O)NC(CC(=O)O)C(=O)NC1C(=O)N2CCCCC2C(=O)NC(C(C)C(=O)O)C(=O)NC(CC(=O)O)C(=O)NCC(=O)NC(CC(=O)O)C(=O)NCC(=O)NC(C(C)N)C(=O)NC(C(C)C)C(=O)N2CCCC2C(=O)NC1C` (stereo partly drawn) [Compound 311, C13-(Asp-(OMe))-Amphomycin] (Tridecanoyl-D(OMe)[ξD][ξAbu(βξ-NH2)][ξPip][ξAsp(βξ-Me)][ξD]G[ξD]G[ξAbu(3ξ-NH2)][ξV][ξP]; lactam 3-C), the minimal inhibitory concentration (MIC) stood at 8 µg/mL.

On to `CCCCCCCCCCCCCCC(=O)Nc1ccc(CC(=O)NC(CC(=O)O)C(=O)NC2C(=O)N3CCCCC3C(=O)NC(C(C)C(=O)O)C(=O)NC(CC(=O)O)C(=O)NCC(=O)NC(CC(=O)O)C(=O)NCC(=O)NC(C(C)N)C(=O)NC(C(C)C)C(=O)N3CCCC3C(=O)NC2C)cc1` (stereo not drawn) [Compound 312, C15-(p-Apa)-Amphomycin] (Pentadecanoyl-[X1]D[ξAbu(βξ-NH2)][Pip][ξAsp(βξ-Me)]DGDG[ξAbu(3ξ-NH2)]VP; lactam 3-C; configuration not given here), for which the minimum inhibitory concentration (MIC) is 1 µg/mL.

Consider `CCCCCCCCCCCCCCC(=O)N[C@@H](CC(=O)OC)C(=O)NC(CC(=O)O)C(=O)NC1C(=O)N2CCCCC2C(=O)NC(C(C)C(=O)O)C(=O)NC(CC(=O)O)C(=O)NCC(=O)NC(CC(=O)O)C(=O)NCC(=O)NC(C(C)N)C(=O)NC(C(C)C)C(=O)N2CCCC2C(=O)NC1C` (stereo partly drawn) [Compound 313, C15-(Asp-(OME))-Amphomycin] (Pentadecanoyl-D(OMe)[ξD][ξAbu(βξ-NH2)][ξPip][ξAsp(βξ-Me)][ξD]G[ξD]G[ξAbu(3ξ-NH2)][ξV][ξP]; lactam 3-C), for which the MIC is 0.5 to 1 µg/mL.

Turning to `CCCCCCCCCCC(=O)N[C@@H](CC(=O)OC(C)(C)C)C(=O)NC(CC(=O)O)C(=O)NC1C(=O)N2CCCCC2C(=O)NC(C(C)C(=O)O)C(=O)NC(CC(=O)O)C(=O)NCC(=O)NC(CC(=O)O)C(=O)NCC(=O)NC(C(C)N)C(=O)NC(C(C)C)C(=O)N2CCCC2C(=O)NC1C` (stereo partly drawn) [Compound 314, C11-(Asp-(OtBu))-Amphomycin] (Undecanoyl-D(OtBu)[ξD][ξAbu(βξ-NH2)][ξPip][ξAsp(βξ-Me)][ξD]G[ξD]G[ξAbu(3ξ-NH2)][ξV][ξP]; lactam 3-C), the minimum inhibitory concentration (MIC) stood at 8 µg/mL.

These data come from patent publication US7868135B2, “Compositions of lipopeptide antibiotic derivatives and methods of use thereof” (priority 2003, dated 2011).
